From patent publication US20110190245A1, “NANOSUSPENSION WITH ANTIFUNGAL MEDICATION TO BE ADMINISTERED VIA INHALATION WITH IMPROVED IMPURITY PROFILE AND SAFETY” (priority 2008, published 2011)

Test system: A. fumigatus
Experiment: Second experiment: survival of immune-suppressed balb-c mice infected intranasally with A. fumigatus conidia
Format: in vivo, Aspergillus fumigatus
Set-up: animals that had died by day 6 after infection: dose or concentration left out as unconfirmed
Experimental: In a second experiment, male balb-c mice were utilized. The animals of all groups were immune-suppressed using 100 mg/kg body weight cyclophosphamide at day −4, −1, 0, 2, 5 and 8. On day −1, the animals received 100 mg/kg cyclophosphamide i.p. and 200 mg/kg cortisone acetate subcutaneous (24±2 hours before infection). Additionally, the animals were treated by inhalation of itraconazole using the same inhalation device as described in the study above. At day 0, the animals were infected intranasally with 2.5×104 A. fumigatus conidia.
Additionally, one group of mice used as reference group was treated with Amphotericin B i.p. using 3 mg/kg daily.
The drug effect was assessed as the number of surviving animals. As expected, 9 out of 12 control animals had already died on day 6 after infection and the remaining animals died with the exception of one until day 9. For animals treated as decribed above, i.e. using the 10% aerosol of itraconazole twice daily, a strong effect was seen.

**Q.** For `C[C@@H]1[C@H](O)[C@@H](C)/C=C/C=C/C=C/C=C/C=C/C=C/C=C/[C@H](O[C@@H]2O[C@H](C)[C@@H](O)[C@H](N)[C@@H]2O)C[C@@H]2O[C@](O)(C[C@@H](O)C[C@@H](O)[C@H](O)CC[C@@H](O)C[C@@H](O)CC(=O)O[C@H]1C)C[C@H](O)[C@H]2C(=O)O` [Amphothericin B, Amphotericin B], which “animals that had died by day 6 after infection” value (12 per group, control animals) is on record?
**A.** The value was 3.

**Q.** What about the “animals that had died at the end of the observation period” value (14 days observation, itraconazole 10% aerosol twice daily, Amphotericin B i.p. 3 mg/kg daily) of the same compound?
**A.** The value was 9 out of 12.
